Like-named read-outs stand apart in the source and are kept apart here.
Legend:
Assay type in all cases: biochemical
human CerS6 = molecular target: T1, human CerS6 (Homo sapiens, UniProt Q6ZMG9); test: Ceramide synthase assay, NBD-dihydrosphingosine, C16:0-CoA; HEK293 cells expressing human CerS6; conditions: inhibitor range 10 nM–100 μM; read-out: IC50 hCerS6
T1 construct: host or cells: HEK293
T1 sequence (Q6ZMG9 1-384): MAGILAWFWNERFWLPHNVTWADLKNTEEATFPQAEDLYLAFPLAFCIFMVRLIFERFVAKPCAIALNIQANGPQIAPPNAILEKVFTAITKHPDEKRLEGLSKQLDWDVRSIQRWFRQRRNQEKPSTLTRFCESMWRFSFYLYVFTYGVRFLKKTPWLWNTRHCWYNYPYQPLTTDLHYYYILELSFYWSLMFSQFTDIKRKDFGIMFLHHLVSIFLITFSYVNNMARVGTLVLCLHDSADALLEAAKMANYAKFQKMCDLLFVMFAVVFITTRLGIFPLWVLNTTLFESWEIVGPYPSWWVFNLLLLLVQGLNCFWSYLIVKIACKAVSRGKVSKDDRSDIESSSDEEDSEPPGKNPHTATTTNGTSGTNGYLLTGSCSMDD
Protocol: (§1) Ceramide synthase assays were carried out using an HPLC-based assay with a fluorescent NBD-dihydrosphingosine substrate. All cell lines used for these assays were originally sourced from ATCC. […] Human CerS expression plasmids (pCMV6 plasmids from Origene) were transfected using FuGene-6 transfection reagent, and cells were harvested 24 h after transfection in 20 mM Hepes pH 7.4, 10 mM KCl, 1 mM dithiothreitol, 3 mM β-glycerophosphate, and EDTA-free complete protease inhibitor cocktail (Roche). Cells were sonicated in a Diagenode Bioruptor sonicating bath for 5 min, after which cell extracts were cleared by centrifugation at 800 × g for 10 min. Protein concentration in the supernatant was assayed using the bicinchoninic acid (BCA) assay, and the supernatant stored at −80 °C. COS cells were infected with lentiviral constructs expressing murine CerS1, 2, or 5, then homogenised as described above.
(§2) The reaction buffer consisted of 20 mM Hepes pH 7.4, 25 mM KCl, 2 mM MgCl2, 0.5 mM dithiothreitol, 0.1% fatty acid free BSA, 10 μM NBD-dihydrosphingosine and 50 μM fatty acid free BSA. C18:0-CoA was used as the fatty acyl substrate for CerS1 and CerS4; C24:1-CoA for CerS2; and C16:0-CoA for CerS5 and CerS6. All reactions were run in triplicate. Test inhibitors were added, after which reactions were started with the addition of 2.5–25 μg lysate protein (optimised depending on the particular CerS isoform being assayed). Assays were run for 30 min at 37 °C, and stopped with the addition of 200 μL methanol. The reaction mixture was transferred to a glass HPLC vial with 300 μL fused glass insert (Thermo Fisher Scientific) and NBD-dihydroceramide reaction products were analysed on a Thermo Scientific Surveyor HPLC connected to a Shimadzu RF-10AXL fluorescent detector (set to gain of 3). […] Data was acquired over a 12 min chromatography run using: solvent A, 0.2% formic acid, 2 mM ammonium formate in water; solvent B, 0.2% formic acid, 1 mM ammonium formate in methanol. The gradient started at 20:80 A/B, increasing to 5:95 A/B over 2 min, then to 100% B over 6 min. The gradient was then held at 100% B for 2 min, before re-equilibration to 20:80 A/B for a further 2 min. Peak areas were integrated using Xcalibur software (Thermo Fisher Scientific).

murine CerS5 = molecular target: T2, murine CerS5 (Mus musculus, UniProt Q9D6K9); test: Ceramide synthase assay, NBD-dihydrosphingosine, C16:0-CoA; COS cells expressing murine CerS5; conditions: inhibitor range 10 nM–100 μM; read-out: IC50 mCerS5
T2 construct: expressed in transfected cells; host or cells: COS cells (lentiviral infection)
T2 sequence (Q9D6K9 1-414): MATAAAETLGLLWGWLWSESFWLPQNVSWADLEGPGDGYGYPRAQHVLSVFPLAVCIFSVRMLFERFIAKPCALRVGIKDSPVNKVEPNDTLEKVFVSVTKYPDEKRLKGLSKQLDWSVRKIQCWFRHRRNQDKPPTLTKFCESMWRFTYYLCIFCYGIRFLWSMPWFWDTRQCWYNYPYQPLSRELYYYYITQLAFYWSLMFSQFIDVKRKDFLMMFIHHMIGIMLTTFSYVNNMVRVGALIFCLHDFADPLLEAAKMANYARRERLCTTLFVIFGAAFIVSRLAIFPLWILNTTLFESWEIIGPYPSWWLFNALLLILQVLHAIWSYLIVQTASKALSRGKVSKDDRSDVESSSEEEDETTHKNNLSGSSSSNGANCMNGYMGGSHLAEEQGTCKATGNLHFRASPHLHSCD
Protocol: as §1, §2

CerS1 = molecular target: T3, CerS1 (Homo sapiens, UniProt P27544); test: Ceramide synthase assay, HPLC-based with fluorescent NBD-dihydrosphingosine, C18:0-CoA; extracts of HEK293 cells expressing human CerS1; set-up: host or cells: HEK293
T3 sequence (P27544 1-350): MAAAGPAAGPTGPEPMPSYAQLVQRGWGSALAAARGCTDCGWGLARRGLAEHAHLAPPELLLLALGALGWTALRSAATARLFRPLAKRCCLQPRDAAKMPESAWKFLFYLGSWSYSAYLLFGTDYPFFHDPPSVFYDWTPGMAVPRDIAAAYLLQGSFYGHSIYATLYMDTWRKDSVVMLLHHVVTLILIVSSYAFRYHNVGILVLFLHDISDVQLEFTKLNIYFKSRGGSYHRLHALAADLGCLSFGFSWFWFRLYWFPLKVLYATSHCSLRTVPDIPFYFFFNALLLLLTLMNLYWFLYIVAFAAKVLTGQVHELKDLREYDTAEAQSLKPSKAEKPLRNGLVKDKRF
Protocol: Ceramide synthase assays were carried out using an HPLC-based assay with a fluorescent NBD-dihydrosphingosine substrate. All cell lines used for these assays were originally sourced from ATCC. […] Cells were sonicated in a Diagenode Bioruptor sonicating bath for 5 min, after which cell extracts were cleared by centrifugation at 800 × g for 10 min. Protein concentration in the supernatant was assayed using the bicinchoninic acid (BCA) assay, and the supernatant stored at −80 °C. COS cells were infected with lentiviral constructs expressing murine CerS1, 2, or 5, then homogenised as described above.
The reaction buffer consisted of 20 mM Hepes pH 7.4, 25 mM KCl, 2 mM MgCl2, 0.5 mM dithiothreitol, 0.1% fatty acid free BSA, 10 μM NBD-dihydrosphingosine and 50 μM fatty acid free BSA. C18:0-CoA was used as the fatty acyl substrate for CerS1 and CerS4; C24:1-CoA for CerS2; and C16:0-CoA for CerS5 and CerS6. All reactions were run in triplicate. Test inhibitors were added, after which reactions were started with the addition of 2.5–25 μg lysate protein (optimised depending on the particular CerS isoform being assayed). […] The reaction mixture was transferred to a glass HPLC vial with 300 μL fused glass insert (Thermo Fisher Scientific) and NBD-dihydroceramide reaction products were analysed on a Thermo Scientific Surveyor HPLC connected to a Shimadzu RF-10AXL fluorescent detector (set to gain of 3). […] The gradient started at 20:80 A/B, increasing to 5:95 A/B over 2 min, then to 100% B over 6 min. The gradient was then held at 100% B for 2 min, before re-equilibration to 20:80 A/B for a further 2 min. Peak areas were integrated using Xcalibur software (Thermo Fisher Scientific).

[1] = inhibitor range 10 nM–100 μM, read-out: IC50 hCerS1

With `C[C@@](N)(CO)CCc1ccc(OCc2ccccc2)cc1` [G024, (2S)-2-amino-4-(4′-benzyloxyphenyl)-2-methyl-1-butanol] as the molecule, how does the IC50 (human CerS6) read?
The IC50 was 8.5 ± 0.13 µM.

And the IC50 (murine CerS5)?
Its IC50 is 24.3 ± 0.22 µM.

What about the IC50 (CerS1; [1]) of the same molecule?
The IC50 was 6 ± 0.1 µM.

How did the IC50 (human CerS6) turn out when `CCCC[C@@H](C)[C@@H](OC(=O)C[C@@H](CC(=O)O)C(=O)O)[C@H](C[C@@H](C)C[C@H](O)CCCC[C@@H](O)C[C@H](O)[C@H](C)N)OC(=O)C[C@@H](CC(=O)O)C(=O)O` [FB1, reference compound] was run?
Its IC50 is 0.29 ± 0.05 µM.

What about the IC50 (murine CerS5) of the same molecule?
The IC50 was 0.5 ± 0.05 µM.

And the “IC50, all CerS isoforms” value (CerS1; all CerS isoforms, in words)?
Its value is “sub-micromolar”.

And the IC50 (CerS1; [1])?
Its IC50 is 0.22 ± 0.05 µM.

How did the IC50 (human CerS6) turn out when `CCCCCCCCc1ccc(CCC(N)(CO)CO)cc1` [FTY720, reference compound] was run?
Its IC50 is 5.8 ± 0.2 µM.

And the IC50 (murine CerS5)?
The IC50 was 15 ± 0.07 µM.

Which IC50 (human CerS6) does the source give for `C[C@@](N)(CO)CCc1ccc(OCc2ccc(Cl)c(Cl)c2)cc1` [P053, (S)-2-amino-4-(4-(3,4-dichlorobenzyloxy)phenyl)-2-methylbutan-1-ol] here?
Its IC50 is 11.4 ± 0.17 µM.

And the IC50 (murine CerS5)?
Its IC50 is 7.2 ± 0.1 µM.

And the IC50 (CerS1; [1])?
The IC50 was 0.54 ± 0.06 µM.

What about the IC50 (CerS1; read-out: IC50 for inhibition of CerS1) of the same molecule?
The IC50 was 0.5 µM.

From article PMC6104039 (Nature Communications, 2018)
